Results from ChEMBL document CHEMBL5512665, “A CARM1 Inhibitor Potently Suppresses Breast Cancer Both In Vitro and In Vivo” (J Med Chem, 2024).
Activity calls are given as the source filed them. The rule behind the calls is not given here.

How the values were obtained:
[1] = test system: MCF7; test: Antiproliferative activity against human MCF7 cells assessed as reduction in cell growth incubated for 7 days by celltiter 96 aqueous one solution cell proliferation assay; conditions: MCF7, 168 h
[2] = Toxicity in BALB/C mouse xenografted with human MCF7 cells assessed as change in body weight at 50 mg/kg,ip administrated every other day for 29 days; assay type: organism-based; conditions: in vivo, 696 h, time 29 day
[3] = Toxicity in BALB/C mouse xenografted with human MCF7 cells assessed as change in spleen morphology at 25 mg/kg,ip administrated every other day for 29 days; assay type: organism-based; conditions: in vivo, 696 h, time 29 day
[4] = test system: MCF7; test: Antitumor activity against human MCF7 cells xenografted in BALB/C mouse assessed as downregulation of N-Myc gene expression at 25 mg/kg,ip administrated every other day for 29 days by RT-qPCR analysis; assay type: functional, organism-based; conditions: time 29.0 day
[5] = test system: MCF7; test: Antitumor activity against human MCF7 cells xenografted in BALB/C mouse assessed as downregulation of FOXC1 gene expression at 50 mg/kg,ip administrated every other day for 29 days by RT-qPCR analysis; assay type: functional, organism-based; conditions: time 29.0 day
[6] = test system: MCF7; test: Antitumor activity against human MCF7 cells xenografted in BALB/C mouse assessed as downregulation of PGR gene expression at 50 mg/kg,ip administrated every other day for 29 days by RT-qPCR analysis; assay type: functional, organism-based; conditions: time 29.0 day
[7] = test system: MCF7; test: Antitumor activity against human MCF7 cells xenografted in BALB/C mouse assessed as upregulation of DDX58 gene expression at 25 mg/kg,ip administrated every other day for 29 days by RT-qPCR analysis; assay type: functional, organism-based; conditions: time 29.0 day
[8] = test system: MDA-MB-231; test: Antitumor activity against human MDA-MB-231 cells xenografted in BALB/C mouse assessed as reduction of tumor size at 25 mg/kg,ip administrated daily for 11 days; assay type: functional, organism-based; conditions: time 11.0 day
[9] = Toxicity in BALB/C mouse xenografted with human MDA-MB-231 cells assessed as change in kidney morphology at 50 mg/kg,ip administrated daily for 11 days; assay type: organism-based; conditions: in vivo, 264 h, time 11 day
[10] = test system: 4T1; test: Antitumor activity against mouse 4T1 cells implanted in BALB/C mouse assessed as inhibition of tumor size at 25 mg/kg,ip administrated daily for 14 days; assay type: functional, organism-based; conditions: time 14.0 day
[11] = Toxicity in BALB/C mouse implanted with mouse 4T1 cells assessed as change in body weight at 25 mg/kg,ip administrated daily for 14 days; assay type: organism-based; conditions: in vivo, 336 h, time 14 day
[12] = Toxicity in BALB/C mouse implanted with mouse 4T1 cells assessed as change in body weight at 50 mg/kg,ip administrated daily for 14 days; assay type: organism-based; conditions: in vivo, 336 h, time 14 day
[13] = Toxicity in BALB/C mouse implanted with mouse 4T1 cells assessed as change in liver morphology at 25 mg/kg,ip administrated daily for 14 days; assay type: organism-based; conditions: in vivo, 336 h, time 14 day
[14] = Toxicity in BALB/C mouse implanted with mouse 4T1 cells assessed as change in liver morphology at 50 mg/kg,ip administrated daily for 14 days; assay type: organism-based; conditions: in vivo, 336 h, time 14 day
[15] = Toxicity in BALB/C mouse implanted with mouse 4T1 cells assessed as change in kidney morphology at 50 mg/kg,ip administrated daily for 14 days; assay type: organism-based; conditions: in vivo, 336 h, time 14 day
[16] = test system: 4T1; test: Antitumor activity against mouse 4T1 cells implanted in BALB/C mouse assessed as downregulation of C-Myc gene expression at 25 mg/kg,ip administrated daily for 14 days by RT-qPCR analysis; assay type: functional, organism-based; conditions: time 14.0 day
[17] = test system: 4T1; test: Antitumor activity against mouse 4T1 cells implanted in BALB/C mouse assessed as downregulation of N-Myc gene expression at 50 mg/kg,ip administrated daily for 14 days by RT-qPCR analysis; assay type: functional, organism-based; conditions: time 14.0 day
[18] = test system: 4T1; test: Antitumor activity against mouse 4T1 cells implanted in BALB/C mouse assessed as downregulation of NRIP1 gene expression at 25 mg/kg,ip administrated daily for 14 days by RT-qPCR analysis; assay type: functional, organism-based; conditions: time 14.0 day
[19] = test system: 4T1; test: Antitumor activity against mouse 4T1 cells implanted in BALB/C mouse assessed as downregulation of FOXC1 gene expression at 25 mg/kg,ip administrated daily for 14 days by RT-qPCR analysis; assay type: functional, organism-based; conditions: time 14.0 day
[20] = test system: 4T1; test: Antitumor activity against mouse 4T1 cells implanted in BALB/C mouse assessed as downregulation of FOXC1 gene expression at 50 mg/kg,ip administrated daily for 14 days by RT-qPCR analysis; assay type: functional, organism-based; conditions: time 14.0 day
[21] = test system: 4T1; test: Antitumor activity against mouse 4T1 cells implanted in BALB/C mouse assessed as upregulation of IFNalpha gene expression at 50 mg/kg,ip administrated daily for 14 days by RT-qPCR analysis; assay type: functional, organism-based; conditions: time 14.0 day
[22] = test system: 4T1; test: Antitumor activity against mouse 4T1 cells implanted in BALB/C mouse assessed as upregulation of ISG15 gene expression at 50 mg/kg,ip administrated daily for 14 days by RT-qPCR analysis; assay type: functional, organism-based; conditions: time 14.0 day
[23] = test system: 4T1; test: Antitumor activity against mouse 4T1 cells implanted in BALB/C mouse assessed as upregulation of DDX58 gene expression at 25 mg/kg,ip administrated daily for 14 days by RT-qPCR analysis; assay type: functional, organism-based; conditions: time 14.0 day
[24] = test system: MCF7; test: Synergistic antiproliferative activity against human MCF7 cells assessed as inhibition of colony formation at 2.5 uM incubated for 10 days in presence of tamoxifen by crystal violet staining based analysis; assay type: functional, cell-based; conditions: time 10.0 day
[25] = test system: MCF7; test: Synergistic antiproliferative activity against human MCF7 cells assessed as inhibition of colony formation at 2.5 uM incubated for 10 days in presence of fulvestrant by crystal violet staining based analysis; assay type: functional, cell-based; conditions: time 10.0 day
[26] = test system: MCF7; test: Synergistic antiproliferative activity against human MCF7 cells assessed as downregulation of N-Myc gene expression at 2.5 uM incubated for 6 hrs in presence of fulvestrant by RT-qPCR analysis; assay type: functional, cell-based
[27] = test system: MCF7; test: Synergistic antiproliferative activity against human MCF7 cells assessed as downregulation of GREB1 gene expression at 2.5 uM incubated for 6 hrs in presence of tamoxifen by RT-qPCR analysis; assay type: functional, cell-based
[28] = test system: MCF7; test: Synergistic antiproliferative activity against human MCF7 cells assessed as downregulation of GREB1 gene expression at 2.5 uM incubated for 6 hrs in presence of fulvestrant by RT-qPCR analysis; assay type: functional, cell-based
[29] = test system: MCF7; test: Potentiation of etoposide induced antiproliferative activity against human MCF7 cells assessed as inhibition of cell growth at 2.5 uM incubated for 7 days in presence of etoposide by celltiter 96 aqueous one solution cell proliferation assay; assay type: functional, cell-based; conditions: time 7.0 day
[30] = test system: MCF7; test: Potentiation of etoposide induced antiproliferative activity against human MCF7 cells assessed as upregulation of IFNalpha gene expression at 2.5 uM in presence of etoposide by RT-qPCR analysis; assay type: functional, cell-based
[31] = test system: MCF7; test: Potentiation of etoposide induced antiproliferative activity against human MCF7 cells assessed as upregulation of IFIT1 gene expression at 2.5 uM in presence of etoposide by RT-qPCR analysis; assay type: functional, cell-based
[32] = test system: 4T1; test: Potentiation of etoposide induced antiproliferative activity against mouse 4T1 cells assessed as inhibition of cell growth at 2.5 uM incubated for 7 days in presence of etoposide by celltiter 96 aqueous one solution cell proliferation assay; assay type: functional, cell-based; conditions: time 7.0 day
[33] = test system: 4T1; test: Potentiation of etoposide induced antitumor activity against mouse 4T1 cells implanted in BALB/C mouse assessed as reduction in tumor weight at 25 mg/kg,ip administrated daily for 12 days in presence of 8 mg/kg etoposide administration; assay type: functional, organism-based; conditions: time 12.0 day

Cc1ccc(-c2nc(N3CCN(CCN(C)C)CC3)ncc2-c2ccoc2)cc1.Cl.Cl
EC50 [1]: 1800 nM | Activity [2]: Non-Toxic | Activity [3]: Non-Toxic | Activity [4]: Active | Activity [5]: Active | Activity [6]: Active | Activity [7]: Active | Activity [8]: Active | Activity [9]: Non-Toxic | Activity [10]: Active | Activity [11]: Non-Toxic | Activity [12]: Non-Toxic | Activity [13]: Non-Toxic | Activity [14]: Non-Toxic | Activity [15]: Non-Toxic | Activity [16]: Active | Activity [17]: Active | Activity [18]: Active | Activity [19]: Active | Activity [20]: Active | Activity [21]: Active | Activity [22]: Active | Activity [23]: Active | Activity [24]: Active | Activity [25]: Active | Activity [26]: Active | Activity [27]: Active | Activity [28]: Active | Activity [29]: Active | Activity [30]: Active | Activity [31]: Active | Activity [32]: Active | Activity [33]: Active
